Patent publication US20250002475A1 (EPICS THERAPEUTICS, priority 2023, published 2025)

Columns and labels:
[1] = test system: Kasumi-1 cells; test: Kasumi-1 cellular viability assay (ATP-Lite, 72 h); assay type: cell-based; conditions: Homo sapiens, ATP-Lite luminescence, % viability relative to DMSO
Experimental: Kasumi-1 cell line was purchased from ATCC (ATCC® CRL2724™). Cells were isolated from the peripheral blood of a child with acute myeloid leukemia (AML FAB M2) (in 2nd relapse after bone marrow transplantation) in 1989. Most cells are round. Kasumi-1 cells are observed to grow individually or in small clumps in suspension.
Kasumi-1 cells are cultured in RPMI-1640 (Gibco A10491-01) containing 10% heat-inactivated and 0.22 μm filtered FBS (Gibco 10270-106) at a density of 3E+5 and 3E+6 viable cell/mL following the certificate of analysis.
Cellular viability assay: Kasumi-1 cells were plated (50 μL) in 96-well cell culture microplates (PS, F-Bottom black, Cellstar, Greiner 655086) at final concentration of 15000 cells/well. The compounds of the invention were dissolved in DMSO, and a titration curve was generated at 1000× final concentration. Compounds were then diluted 500× in tissue culture medium (RPMI-1640, 10% FBS). Then 50 μl of test compound were added to Kasumi-1 cells in a final DMSO concentration of 0.1%, final volume 100 μl. A gas permeable sealing membrane was applied to the plate to prevent evaporation (Breathe-Easy sealing membrane, Sigma Z380059-1PK) and cells were incubated for 72 h at 37° C., 5% CO2, 80% RH. After 72h of treatment, the plates were taken out of the incubator and left for a few minutes at room temperature. 100 μl of the reconstituted reagent ATP-Lite One Step (Perkin Elmer, 6016739) was added to each well. The plates were shaken for 2 min at 700 rpm and placed in the dark for 10 minutes at room temperature before measurement of luminescence intensity with Envision instrument. The raw data were expressed in RLU. Results were expressed in % of viability relative to DMSO control and an IC50 was calculated based on the concentration-response profile of individual compounds.

[2] = biological target: T1, recombinant METTL3/METTL14 complex (Homo sapiens, UniProt Q86U44); test: METTL3/14 Scintillation Proximity Assay (SPA), RNA methyltransferase activity; assay type: biochemical; conditions: 5.31 nM METTL3/14 complex, 250 nM RNA substrate, 1 μM 3H-SAM, 90 min; for compounds marked * best of the two separated forms
T1 construct: purchased Active Motif 311970; host or cells: Sf9 cells
T1 sequence (Q86U44 whole entry): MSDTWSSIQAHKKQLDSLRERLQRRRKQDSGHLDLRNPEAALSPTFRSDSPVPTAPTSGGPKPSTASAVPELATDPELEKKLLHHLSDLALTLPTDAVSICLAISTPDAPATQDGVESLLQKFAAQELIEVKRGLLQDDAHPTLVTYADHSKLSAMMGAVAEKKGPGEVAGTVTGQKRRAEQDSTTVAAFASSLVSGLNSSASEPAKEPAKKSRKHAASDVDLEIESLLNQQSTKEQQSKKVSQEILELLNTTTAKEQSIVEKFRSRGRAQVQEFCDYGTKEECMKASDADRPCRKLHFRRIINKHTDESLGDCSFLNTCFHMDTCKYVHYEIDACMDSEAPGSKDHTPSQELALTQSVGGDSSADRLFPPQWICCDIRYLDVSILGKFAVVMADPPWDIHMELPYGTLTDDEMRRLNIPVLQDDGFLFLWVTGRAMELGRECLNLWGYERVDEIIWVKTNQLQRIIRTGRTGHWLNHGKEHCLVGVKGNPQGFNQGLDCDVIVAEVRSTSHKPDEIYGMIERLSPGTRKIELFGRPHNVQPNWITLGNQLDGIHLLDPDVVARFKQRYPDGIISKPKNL
T1 sequence (Q9HCE5 whole entry partner): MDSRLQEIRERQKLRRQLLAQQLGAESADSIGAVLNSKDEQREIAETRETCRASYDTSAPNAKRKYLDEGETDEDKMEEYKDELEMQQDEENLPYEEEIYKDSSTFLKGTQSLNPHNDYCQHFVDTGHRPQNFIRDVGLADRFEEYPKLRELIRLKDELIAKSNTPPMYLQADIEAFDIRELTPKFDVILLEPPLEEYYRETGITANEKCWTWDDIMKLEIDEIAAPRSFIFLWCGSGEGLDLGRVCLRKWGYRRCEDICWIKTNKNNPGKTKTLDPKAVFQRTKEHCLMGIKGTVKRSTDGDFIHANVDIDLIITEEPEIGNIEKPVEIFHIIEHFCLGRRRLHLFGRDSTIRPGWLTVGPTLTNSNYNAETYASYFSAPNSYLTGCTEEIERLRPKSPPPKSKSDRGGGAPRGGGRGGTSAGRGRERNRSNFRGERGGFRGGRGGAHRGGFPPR

| Structure (SMILES) | IC50 [2] [nM] | IC50 [1] [nM] |
| --- | --- | --- |
| COc1cc(-c2cn(Cc3n[nH]c(N4CCC[C@@H](NCC5CCC5)C4)cc3=O)nn2)c2cn[nH]c2c1 [Compound 039, (R)-6-(3-((cyclobutylmethyl)amino)piperidin-1-yl)-3-((4-(6-methoxy-1H-indazol-4-yl)-1H-1,2,3-triazol-1-yl)methyl)pyridazin-4(1H)-one] | ≤ 50 | > 5000 |
| COc1cc(-c2cn(Cn3cnc(N4CCC[C@@H](NCC5CCC5)C4)cc3=O)nn2)c2cn[nH]c2c1 [Compound 041, (R)-6-(3-((cyclobutylmethyl)amino)piperidin-1-yl)-3-((4-(6-methoxy-1H-indazol-4-yl)-1H-1,2,3-triazol-1-yl)methyl)pyrimidin-4(3H)-one] | 50 to 500 | > 5000 |
| COc1cc(-c2cn(Cc3ncc(N4CCCC(NCC5CCC5)C4)cn3)nn2)c2cn[nH]c2c1 (stereo not drawn) [Compound 043, N-(cyclobutylmethyl)-1-(2-((4-(6-methoxy-1H-indazol-4-yl)-1H-1,2,3-triazol-1-yl)methyl)pyrimidin-5-yl)piperidin-3-amine] | ≤ 50 | > 5000 |
| COc1cc(-c2cn(Cc3cnc(N4CCCC(NCC5CCC5)C4)nc3)nn2)c2cn[nH]c2c1 (stereo not drawn) [Compound 046, N-(cyclobutylmethyl)-1-(5-((4-(6-methoxy-1H-indazol-4-yl)-1H-1,2,3-triazol-1-yl)methyl)pyrimidin-2-yl)piperidin-3-amine] | 50 to 500 | > 5000 |
| COc1cc(-c2cn(Cc3ccc(N4CCCC(NCC5CCC5)C4)c(=O)[nH]3)nn2)c2cn[nH]c2c1 (stereo not drawn) [Compound 052, 3-(3-((cyclobutylmethyl)amino)piperidin-1-yl)-6-((4-(6-methoxy-1H-indazol-4-yl)-1H-1,2,3-triazol-1-yl)methyl)pyridin-2(1H)-one] | 50 to 500 | > 5000 |

More lines, main results first:

| IC50 [2] [nM] | Structure (SMILES) | IC50 [1] [nM] |
| --- | --- | --- |
| 50 to 500 | O=C(Nc1cnc2[nH]ccc2c1)C1(c2ccc(N3CCC[C@@H](NCC4CCC4)C3)cn2)COC1 [Compound 299, (R)-3-(5-(3-((cyclobutylmethyl)amino)piperidin-1-yl)pyridin-2-yl)-N-(1H-pyrrolo[2,3-b]pyridin-5-yl)oxetane-3-carboxamide] |  |
| ≤ 50 | O=C(Nc1cc2ccccc2c(=O)[nH]1)C1(c2ccc(N3CCC[C@@H](NCC4CCC4)C3)cn2)COC1 [Compound 302, (R)-3-(5-(3-((cyclobutylmethyl)amino)piperidin-1-yl)pyridin-2-yl)-N-(1-oxo-1,2-dihydroisoquinolin-3-yl)oxetane-3-carboxamide] |  |
| ≤ 50 | Cn1c(N2CCCC2)cc(-c2cn(C3(c4ccc(N5CCC[C@@H](NCC6CC6)C5)cn4)COC3)nn2)cc1=O [Compound 314, (R)-4-(1-(3-(5-(3-((cyclopropylmethyl)amino)piperidin-1-yl)pyridin-2-yl)oxetan-3-yl)-1H-1,2,3-triazol-4-yl)-1-methyl-6-(pyrrolidin-1-yl)pyridin-2(1H)-one] |  |
| 50 to 500 | c1ncc(C2CC2)cc1-c1cn(C2(c3ccc(N4CCC[C@H](NCC5CC5)C4)cn3)COC2)nn1 [Compound 351, (S)—N-(cyclopropylmethyl)-1-(6-(3-(4-(5-cyclopropylpyridin-3-yl)-1H-1,2,3-triazol-1-yl)oxetan-3-yl)pyridin-3-yl)piperidin-3-amine] | 500 to 5000 |
